# Measurements reported in patent US20220009918A1, “Chemical Compounds” (GlaxoSmithKline Intellectual Property Development Limited, priority 2018, published 2022).
# Legend:
# male C57Bl/6N mice = assay: In vivo functional response to muscle injury (eccentric contraction-induced); design: species or system mouse
# Protocol: FIG. 1. Effect of different doses of an H-PGDS inhibitor, Example 16, on limb force following eccentric (lengthening) contraction-induced muscle injury in normal C57Bl6/N mice. Doses were administered 10 minutes prior to damage and QD thereafter.
# In Vivo Assays for Functional Response to Muscle Injury
# Under anesthesia, the right hind limb of a mouse is restrained at the knee and the foot attached to a motorized footplate/force transducer. Needle electrodes are inserted into the upper limb, either side of the sciatic nerve and a current sufficient to elicit a maximal muscle contraction is applied. Muscle tension is produced by moving the footplate to lengthen the plantarflexor muscles while the limb is under maximal stimulation. This is repeated 60 times to fatigue the muscles of the lower limb. Anesthesia, limb immobilization and limb stimulation are then repeated at regular intervals to measure maximal isometric force in the recovering limb. 7 to 9 animals are tested for each test condition.
# human H-PGDS = target: T1, human H-PGDS (Homo sapiens, UniProt O60760); assay: H-PGDS RapidFire high throughput mass spectrometry assay; format: biochemical; settings: inhibition of conversion of PGH2 to PGD2 by H-PGDS; mean pIC50; read-out: Potency Range (mean pIC50) (converted)
# T1 construct: Full length human H-PGDS cDNA (Invitrogen Ultimate ORF IOH13026) was amplified by PCR; 6-His (N); TEV protease cleavage site (N); made in house; host or cells: E. coli BL21 (DE3*) for H-PGDS; Sf9 insect cells (baculovirus) for COX-2
# Method in brief: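 Full-length His-tagged human H-PGDS from E. coli converted PGH2, generated in situ (~10 μM burst) from arachidonic acid by FLAG-tagged human COX-2 (Sf9-expressed). PGD2 and PGF2α (substrate surrogate) were measured by RapidFire SPE-triple quadrupole MS. Percent conversion was calculated, and inhibition was taken as reduced conversion.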
# T1 sequence (O60760 whole entry): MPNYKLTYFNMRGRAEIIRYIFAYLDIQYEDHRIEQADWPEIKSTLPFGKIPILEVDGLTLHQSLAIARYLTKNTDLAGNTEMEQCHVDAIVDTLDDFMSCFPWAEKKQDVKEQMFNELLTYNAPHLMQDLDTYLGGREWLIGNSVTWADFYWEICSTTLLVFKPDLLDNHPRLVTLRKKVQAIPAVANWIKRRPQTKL
structure (smiles),measurement,setting,value
"CC1(C)C[C@H](NC(=O)c2cnc(-c3cc(F)cc(Cl)c3)s2)C(=O)N1 (single isomer, unassigned) [Example 16]",protection from strength loss (maximal isometric torque) 24 hours after injury,"male C57Bl/6N mice; male C57Bl/6N mice, PO immediately prior to eccentric contraction challenge",dose-dependent protection from strength loss
same,restoration of muscle function after 9 days,"male C57Bl/6N mice; male C57Bl/6N mice, repeat dosing (QD) PO, all doses greater than 0.1 mg/kg",full restoration of muscle function
same,limb force / functional repair following eccentric contraction-induced limb muscle injury (FIG. 1),"male C57Bl/6N mice; normal C57Bl6/N mice, doses 10 minutes prior to damage and QD thereafter",Accelerates Functional Repair
same,IC50,human H-PGDS,10.2 to 100 nM
